Experimental data published in PubChem BioAssay (NCI).
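Here, GI50 denotes the concentration required for 50% inhibition of growth. At the TGI there is no net growth.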

Assays:
Test in all cases: NCI anticancer screen, dose series, 384-well format
BT-549 breast = tested on: BT-549 breast
OVCAR-3 ovarian = tested on: OVCAR-3 ovarian
COLO 205 colon = tested on: COLO 205 colon
DU-145 prostate = tested on: DU-145 prostate
TK-10 renal = tested on: TK-10 renal
MALME-3M melanoma = tested on: MALME-3M melanoma
HCC-2998 colon = tested on: HCC-2998 colon
ACHN renal = tested on: ACHN renal
NCI-H322M lung = tested on: NCI-H322M lung
A549 NSCLC = tested on: A549 NSCLC
M14 melanoma = tested on: M14 melanoma
SF-268 CNS = tested on: SF-268 CNS
HOP-92 NSCLC = tested on: HOP-92 NSCLC
HT29 colon = tested on: HT29 colon
LOX IMVI melanoma = tested on: LOX IMVI melanoma
SK-OV-3 ovarian = tested on: SK-OV-3 ovarian
SW-620 colon = tested on: SW-620 colon
HOP-62 NSCLC = tested on: HOP-62 NSCLC
SF-539 CNS = tested on: SF-539 CNS
UO-31 renal = tested on: UO-31 renal
CAKI-1 renal = tested on: CAKI-1 renal
NCI-H226 lung = tested on: NCI-H226 lung
UACC-62 melanoma = tested on: UACC-62 melanoma
SK-MEL-5 melanoma = tested on: SK-MEL-5 melanoma
HCT-15 colon = tested on: HCT-15 colon
786-0 renal = tested on: 786-0 renal
U251 glioblastoma = tested on: U251 glioblastoma
PC-3 prostate = tested on: PC-3 prostate
SNB-75 CNS = tested on: SNB-75 CNS
SN12C renal = tested on: SN12C renal
CCRF-CEM leukemia = tested on: CCRF-CEM leukemia
HS 578T breast = tested on: HS 578T breast
MOLT-4 leukemia = tested on: MOLT-4 leukemia
EKVX NSCLC = tested on: EKVX NSCLC
RXF 393 renal = tested on: RXF 393 renal
IGROV1 ovarian = tested on: IGROV1 ovarian
MCF7 breast = tested on: MCF7 breast
HCT-116 colon = tested on: HCT-116 colon
K-562 leukemia = tested on: K-562 leukemia
KM12 colon = tested on: KM12 colon
A498 renal = tested on: A498 renal
MDA-MB-468 breast = tested on: MDA-MB-468 breast
SK-MEL-28 melanoma = tested on: SK-MEL-28 melanoma
NCI-H522 lung = tested on: NCI-H522 lung
OVCAR-8 ovarian = tested on: OVCAR-8 ovarian
SF-295 CNS = tested on: SF-295 CNS
MDA-MB-435 melanoma = tested on: MDA-MB-435 melanoma
NCI-H460 NSCLC = tested on: NCI-H460 NSCLC
NCI/ADR-RES ovarian = tested on: NCI/ADR-RES ovarian
MDA-MB-231 breast = tested on: MDA-MB-231 breast
NCI-H23 lung = tested on: NCI-H23 lung
T-47D breast = tested on: T-47D breast
OVCAR-4 ovarian = tested on: OVCAR-4 ovarian
UACC-257 melanoma = tested on: UACC-257 melanoma

Cc1cc(C(=O)NOCCO)c(Nc2ccc(I)cc2F)n(C)c1=O
GI50 (BT-549 breast): 20.4 µM
TGI (BT-549 breast): > 100 µM
GI50 (OVCAR-3 ovarian): 62.9 µM
TGI (OVCAR-3 ovarian): > 100 µM
GI50 (COLO 205 colon): < 0.01 µM
TGI (COLO 205 colon): 0.0132 µM
GI50 (DU-145 prostate): 4.72 µM
TGI (DU-145 prostate): > 100 µM
GI50 (TK-10 renal): 0.0521 µM
TGI (TK-10 renal): > 100 µM
GI50 (MALME-3M melanoma): < 0.01 µM
TGI (MALME-3M melanoma): < 0.01 µM
GI50 (HCC-2998 colon): < 0.01 µM
TGI (HCC-2998 colon): < 0.01 µM
GI50 (ACHN renal): 22.2 µM
TGI (ACHN renal): > 100 µM
GI50 (NCI-H322M lung): < 0.01 µM
TGI (NCI-H322M lung): > 100 µM
GI50 (A549 NSCLC): 0.0118 µM
TGI (A549 NSCLC): 74.2 µM
GI50 (M14 melanoma): < 0.01 µM
TGI (M14 melanoma): < 0.01 µM
GI50 (SF-268 CNS): > 100 µM
TGI (SF-268 CNS): > 100 µM
GI50 (HOP-92 NSCLC): 0.0157 µM
TGI (HOP-92 NSCLC): 0.125 µM
GI50 (HT29 colon): < 0.01 µM
TGI (HT29 colon): > 100 µM
GI50 (LOX IMVI melanoma): < 0.01 µM
TGI (LOX IMVI melanoma): 0.116 µM
GI50 (SK-OV-3 ovarian): > 100 µM
TGI (SK-OV-3 ovarian): > 100 µM
GI50 (SW-620 colon): < 0.01 µM
TGI (SW-620 colon): > 100 µM
GI50 (HOP-62 NSCLC): < 0.01 µM
TGI (HOP-62 NSCLC): > 100 µM
GI50 (SF-539 CNS): 0.052 µM
TGI (SF-539 CNS): > 100 µM
GI50 (UO-31 renal): 0.0404 µM
TGI (UO-31 renal): > 100 µM
GI50 (CAKI-1 renal): 0.012 µM
TGI (CAKI-1 renal): > 100 µM
GI50 (NCI-H226 lung): 0.0389 µM
TGI (NCI-H226 lung): 94.4 µM
GI50 (UACC-62 melanoma): < 0.01 µM
TGI (UACC-62 melanoma): < 0.01 µM
GI50 (SK-MEL-5 melanoma): < 0.01 µM
TGI (SK-MEL-5 melanoma): > 100 µM
GI50 (HCT-15 colon): 0.145 µM
TGI (HCT-15 colon): > 100 µM
GI50 ([…]-0 renal): 0.0446 µM
TGI (786-0 renal): > 100 µM
GI50 (U251 glioblastoma): 0.0391 µM
TGI (U251 glioblastoma): > 100 µM
GI50 (PC-3 prostate): > 100 µM
TGI (PC-3 prostate): > 100 µM
GI50 (SNB-75 CNS): 0.18 µM
TGI (SNB-75 CNS): > 100 µM
GI50 (SN12C renal): < 0.01 µM
TGI (SN12C renal): 48.7 µM
GI50 (CCRF-CEM leukemia): > 100 µM
TGI (CCRF-CEM leukemia): > 100 µM
GI50 (HS 578T breast): 0.0264 µM
TGI (HS 578T breast): > 100 µM
GI50 (MOLT-4 leukemia): > 100 µM
TGI (MOLT-4 leukemia): > 100 µM
GI50 (EKVX NSCLC): 0.0243 µM
TGI (EKVX NSCLC): > 100 µM
GI50 (RXF 393 renal): 0.0582 µM
TGI (RXF 393 renal): > 100 µM
GI50 (IGROV1 ovarian): < 0.01 µM
TGI (IGROV1 ovarian): > 100 µM
GI50 (MCF7 breast): > 100 µM
TGI (MCF7 breast): > 100 µM
GI50 (HCT-116 colon): < 0.01 µM
TGI (HCT-116 colon): 0.121 µM
GI50 (K-562 leukemia): 0.0114 µM
TGI (K-562 leukemia): > 100 µM
GI50 (KM12 colon): < 0.01 µM
TGI (KM12 colon): > 100 µM
GI50 (A498 renal): 35.7 µM
TGI (A498 renal): > 100 µM
GI50 (MDA-MB-468 breast): 49.7 µM
TGI (MDA-MB-468 breast): > 100 µM
GI50 (SK-MEL-28 melanoma): < 0.01 µM
TGI (SK-MEL-28 melanoma): < 0.01 µM
GI50 (NCI-H522 lung): 33.2 µM
TGI (NCI-H522 lung): > 100 µM
GI50 (OVCAR-8 ovarian): 32 µM
TGI (OVCAR-8 ovarian): > 100 µM
GI50 (SF-295 CNS): 65.7 µM
TGI (SF-295 CNS): > 100 µM
GI50 (MDA-MB-435 melanoma): < 0.01 µM
TGI (MDA-MB-435 melanoma): > 100 µM
GI50 (NCI-H460 NSCLC): < 0.01 µM
TGI (NCI-H460 NSCLC): > 100 µM
GI50 (NCI/ADR-RES ovarian): > 100 µM
TGI (NCI/ADR-RES ovarian): > 100 µM
GI50 (MDA-MB-231 breast): < 0.01 µM
TGI (MDA-MB-231 breast): 0.138 µM
GI50 (NCI-H23 lung): < 0.01 µM
TGI (NCI-H23 lung): 0.0435 µM
GI50 (T-47D breast): > 100 µM
TGI (T-47D breast): > 100 µM
GI50 (OVCAR-4 ovarian): > 100 µM
TGI (OVCAR-4 ovarian): > 100 µM
GI50 (UACC-257 melanoma): < 0.01 µM
TGI (UACC-257 melanoma): < 0.01 µM
